# How the values were obtained:
# [1] = target: T1, human MCP-1 binding to THP-1 cells (Homo sapiens, UniProt P41597); experiment: Inhibitory activity against binding of [125I]-labeled human MCP-1 to THP-1 cells (method 2); details: concentration of 1 μM
# T1 construct: endogenous in cells; host or cells: THP-1 (whole cells)
# T1 sequence (P41597 1-360 isoform P41597-2): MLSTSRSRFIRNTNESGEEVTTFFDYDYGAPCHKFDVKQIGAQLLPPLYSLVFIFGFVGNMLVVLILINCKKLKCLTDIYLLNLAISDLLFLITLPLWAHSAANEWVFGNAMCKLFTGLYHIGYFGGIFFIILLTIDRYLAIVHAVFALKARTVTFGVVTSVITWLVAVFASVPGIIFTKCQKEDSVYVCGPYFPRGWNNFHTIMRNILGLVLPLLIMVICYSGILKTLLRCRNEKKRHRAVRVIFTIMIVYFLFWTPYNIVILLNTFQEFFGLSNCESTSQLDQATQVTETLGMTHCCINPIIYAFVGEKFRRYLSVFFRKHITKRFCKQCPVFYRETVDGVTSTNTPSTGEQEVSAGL
# Description: Two kinds of DNA synthetic primers (5′-[…]-3′ (SEQ ID NO:1) and 5′-[…]-3′) (SEQ ID NO:2) having restriction enzyme recognition sites applied on the basis of the known human MCP-1 gene sequence (see, for example, Yoshimura, T. et al. FEBS Letters 1989, 244, 487-493) were used to amplify a cDNA derived from human vascular endothelial cells (purchased from Kurabow) according to a PCR method. The amplified fragment was cleaved with restriction enzymes (PstI and XbaI) and then ligated into a transfer vector pVL1393 (Invitrogen Co.). The resulting vector was co-transfected with an infectious baculovirus into Sf-9 insect cells. Human MCP-1 gene recombinant baculoviruses were isolated from the obtained supernatant by a plaque assay method.
# According to the method of Ishii, K. et al. (see Biochemical and Biophysical Research Communications, 1995, 206, 955-961), 5×10^6 cells of Sf-9 insect cells were infected with 5×10^7 PFU (plaque-forming units) of the above human MCP-1 gene recombinant baculoviruses and cultured in EX-CELL 401 medium for 7 days. The resulting culture supernatant was affinity purified by a heparin-Sepharose column (Pharmacia Co.) and then subjected to reverse phase HPLC (Vydac C18 column) to afford a purified human MCP-1. The protein labeling of the resulting purified human MCP-1 was requested for Amersham Co. to obtain a [^125I]-labeled human MCP-1 expressed with baculovirus (specific activity: 2000 Ci/mmol) prepared by the Bolten Hunter method. The resulting [^125I]-labeled human MCP-1 was used for the following tests.
# THP-1 cells which are human monocytic leukemia cell line were suspended in an assay buffer (containing 50 mM of HEPES, 11.0 mM of CaCl2, 5.0 mM of MgCl2 and 0.5% of BSA at pH 7.4) so as to provide 1×10^7 cells/mL to thereby obtain a cell suspension. A solution obtained by diluting the test compound with the assay buffer was used as a test compound solution. A solution prepared by diluting the above [^125I]-labeled human MCP-1 expressed with baculovirus with the assay buffer so as to provide 1 μCi/mL was used as a labeled ligand solution. In a 96-well filter plate (Millipore Co.), were aliquoted 25 μL of the test compound solution, 25 μL of the labeled ligand solution and 50 μL of the cell suspension in the order mentioned for each well. The solutions were stirred (100 μL of the reaction solution) and then incubated at 18° C. for 1 hour.
# After completing the reaction, the reaction solution was filtered through a filter, and the filter was washed with 200 μL of cold PBS twice (the reaction solution was filtered after adding 200 μL of the cold PBS). The filter was air-dried, and […] of liquid scintillator was then added by into each well to count the radioactivity retained by the cells on the filter using TopCount (Packard Instrument Co.). The count when 100 ng of the above human MCP-1 expressed with baculovirus(unlabeled) instead of the test compound was added was subtracted as nonspecific adsorption, and the count when the test compound was not added was 100%. Thereby, the inhibitory activity of the test compound against binding of the human MCP-1 to THP-1 cells was calculated. Inhibition ratio (%)={1−(A−B)/(C−B)}×100 (wherein A is the count when the test compound is added; B is the count when 100 ng of the unlabeled human MCP-1 is added; C is the count when only the [^125I]-labeled human MCP-1 is added).
# [2] = system: glomerulonephritis induced by anti-glomerular basement membrane serum; experiment: Masugi's nephritis model in WKY rats; format: in vivo; details: 100 mg/kg orally twice a day
# Description: Rabbits were immunized with a trypsin fraction of rat kidney cortex to provide an anti-glomerular basement membrane serum which was intravenously injected to 4-weeks-old female WKY rats (Charles River) in a dose of 2.5 mL/kg body weight to induce glomerulonephritis. After injection of the antiserum, urine of each animal was collected for 24 hours with metabolic cages for rats (Clea Japan, Inc.) on the 1st, 4th, 7th, 10th and 14th days after the injection. The amount of the urine was measured by urine weight and the protein content in the urine was measured by using a kit for assaying proteins in urine and cerebrospinal fluid (Tonein TP-II, Otsuka Pharmaceutical Co., Ltd.) to determine the amount of proteins excreted in urine per day. Serum of the animals subjected to the experiments was collected on the 15th day after injecting the antiserum, and creatinine concentration in blood was measured with a creatinine assay kit (Autosera®), Daiichi Pure Chemicals Co., Ltd.) using a Hitach±7070 model autoanalyzer. The test compound was daily orally administered in a dose of 100 mg/kg body weight twice a day from the date of injecting the anti-glomerular basement membrane serum (about 10:00 a.m. and about 6:00 p.m. in Experiment 1 and about 10:00 a.m. and about 5:00 p.m. in Experiment 2). In the control group, only the solution (a 0.5% aqueous solution of sodium carboxymethylcellulose) was orally administered. The administration volume was 10 mL/kg body weight, and the number of animals (N) was 10.
# [3] = system: collagen-induced arthritis; experiment: Collagen-induced arthritis in mice; format: in vivo, DBA/1 mice
# [4] = system: chronic relapsing experimental allergic encephalomyelitis; experiment: Chronic relapsing experimental allergic encephalomyelitis in mice; format: in vivo, SJL/J×PL/J F1 mice; details: for Onset Date, First Attack: SJL/J×PL/J F1 mice; for Onset Date, First Attack / Duration of Clinical Sign, First Attack / Onset Date, Second Attack (Relapse): to 41 days after injection of the emulsion; for Maximal Clinical Score, First Attack / Maximal Clinical Score, Second Attack (Relapse): score 0-5, to 41 days after injection of the emulsion
# [5] = system: THP-1 cells; experiment: Inhibitory activity against cell chemotaxis caused by MCP-1; format: cell-based; details: Homo sapiens, MCP-1 20 ng/mL
# Description: In order to determine the inhibitory activity of the compounds according to the present invention against the cell chemotaxis, human monocytic leukemia cell line THP-1 was used as chemotactic cells according to the method of Fall et al. (J. Immunol. Methods, 1980, 33, 239-247) to determine the cell chemotaxis caused by monocyte chemotactic factor MCP-1 as follows: Namely, 2×10^6 cells/mL of the THP-1 cells [suspended in RPMI-1640 (Flow Laboratories Co.) 10% FCS] were placed in the upper chamber (200 μL) of a 96-well microchemotaxis chamber (Neuroprobe®), and human recombinant MCP-1 (Peprotech Co.) diluted with the same solution so as to provide the final concentration of 20 ng/mL was placed in the lower chamber (35 μL). A polycarbonate filter (PVP-free, Neuroprobe®) was placed between the two chambers. These were incubated in the presence of 5% of CO2 at 37° C. for 2 hours.
# The filter was removed, and the cells which had migrated to the undersurface of the filter were immobilized, stained using Diff Quick (Kokusai Shiyaku Co.) and then measured at a measuring wavelength of 550 nm using a plate reader (Molecular Device Co.) to determine the means of 3 wells. Thereby, the indication of the number of cells migrated was obtained. The test compound together with the THP-1 cells was added to the upper chamber at various concentrations to determine the inhibitory activity against cell chemotaxis [degree of inhibition: IC50 (μM)].
# [6] = 100 mg/kg body weight orally, vs control
compound,measurement,setting,value
"Nc1ccc(Cl)cc1C(=O)NCC(=O)N[C@@H]1CCN(Cc2ccc(Cl)cc2)C1 [Compd. No. 1084, (R)-1-(4-chlorobenzyl)-3-[[N-(2-amino-5-chlorobenzoyl)glycyl]amino]pyrrolidine]",inhibition at 1 µM,[1],50 to 80%
"Cc1ccc(C(=O)NCC(=O)NCC2CCN(Cc3ccc(Cl)cc3)CC2)cc1Br [Compd. No. 1113, 4-[[N-(3-bromo-4-methylbenzoyl)glycyl]aminomethyl]-1-(4-chlorobenzyl)piperidine]",inhibition at 1 µM,[1],50 to 80%
"COc1ccc(CN2CCC(CNC(=O)CNC(=O)c3cccc(C(F)(F)F)c3)CC2)cc1O [Compd. No. 1452, 1-[3-hydroxy-4-methoxybenzyl]-4-[[N-(3-(trifluoromethyl)benzoyl)glycyl]aminomethyl]piperidine]",inhibition at 1 µM,[1],20 to 50%
Nc1ccc(C(F)(F)F)cc1C(=O)NCC(=O)N[C@@H]1CCN(Cc2ccc(Cl)cc2)C1 [Compd. No. 1583],inhibition of the concentration of urinary proteins,"[2]; 7th day after antiserum, vs control",26%
same,inhibition of the concentration of urinary proteins,"[2]; 10th day after antiserum, vs control",51%
same,inhibition of the concentration of urinary proteins,"[2]; 14th day after antiserum, vs control",54%
same,decrease of creatinine concentration in blood,"[2]; 15th day after antiserum, vs control",20%
same,Serum Creatinine Concentration,[2]; on the 15th Day,0.39 ± 0.03 mg/dL
same,chondrolysis of articular cartilages,"[3]; knee joint, oral 12 weeks",significantly inhibited
same,osteolysis of subchondral bone,"[3]; knee joint, oral 12 weeks",significantly inhibited
same,synovial hyperplasia,"[3]; knee joint, oral 12 weeks",significantly inhibited
same,arthritis scores,"[3]; orally once a day for 12 weeks, vs control group",significantly inhibited arthritis scores
same,"Onset Date, First Attack",[4]; 30 mg/kg body weight oral,12.3 ± 1.9
same,"Maximal Clinical Score, First Attack",[4]; 30 mg/kg body weight oral,3.5 ± 0.9
same,"Maximal Clinical Score, Second Attack (Relapse)",[4]; 30 mg/kg body weight oral,3.7 ± 0.6
same,"Duration of Clinical Sign, First Attack",[4]; 30 mg/kg body weight oral,9.8 ± 3.3
same,"Onset Date, Second Attack (Relapse)",[4]; 30 mg/kg body weight oral,26.3 ± 3.4
same,"onset date, symptoms and onset period at the first attack","[4]; 30 mg/kg body weight orally, vs control",distinct effects on the items were not found
same,"Onset Date, First Attack",[4]; 100 mg/kg body weight oral,13.6 ± 2.0
same,"Maximal Clinical Score, First Attack",[4]; 100 mg/kg body weight oral,2.4 ± 1.3
same,"Maximal Clinical Score, Second Attack (Relapse)",[4]; 100 mg/kg body weight oral,3.0 ± 0.9
same,"Duration of Clinical Sign, First Attack",[4]; 100 mg/kg body weight oral,5.7 ± 3.8
same,"Onset Date, Second Attack (Relapse)",[4]; 100 mg/kg body weight oral,28.5 ± 4.7
same,onset date at the first attack,[4]; [6],tendency to delay the onset date (no significant difference)
same,onset period at the first attack,[4]; [6],shortening of onset period (p<0.05)
same,symptoms (clinical scores) at the first attack,[4]; [6],symptom inhibition (p<0.05)
"COCCNC(=O)c1ccc(CN2CCC(CNC(=O)CNC(=O)c3cccc(C(F)(F)F)c3)CC2)cc1 [Compd. No. 1612, 1-[4-[N-(2-methoxyethyl)carbamoyl]benzyl]-4-[[N-(3-(trifluoromethyl)benzoyl)glycyl]aminomethyl]piperidine]",inhibition at 1 µM,[1],20 to 50%
"Nc1cc(F)c(F)cc1C(=O)NCC(=O)NCC1CCN(c2ccc3nonc3c2)CC1 [Compd. No. 2130, 4-[[N-(2-amino-4,5-difluorobenzoyl)glycyl]aminomethyl]-1-(benzo[c]furazan-5-yl)piperidine]",inhibition at 1 µM,[1],20 to 50%
"Cc1noc(C)c1N1CCC(CNC(=O)CNC(=O)c2cc(F)c(F)cc2N)CC1 [Compd. No. 2131, 4-[[N-(2-amino-4,5-difluorobenzoyl)glycyl]aminomethyl]-1-(3,5-dimethylisoxazol-4-yl)piperidine]",inhibition at 1 µM,[1],20 to 50%
"COc1ncc(CN2CC[C@@H](NC(=O)CNC(=O)c3cc(C(F)(F)F)ccc3N)C2)c(OC)n1 [Compd. No. 2175, (R)-3-[[N-(2-amino-5-trifluoromethylbenzoyl)glycyl]amino]-1-(2,4-dimethoxypyrimidin-5-ylmethyl)pyrrolidine]",inhibition at 1 µM,[1],50 to 80%
"Nc1ccc(C(F)(F)F)cc1C(=O)NCC(=O)N[C@@H]1CCN(c2ccc3ocnc3c2)C1 [Compd. No. 2189, (R)-3-[[N-(2-amino-5-trifluoromethylbenzoyl)glycyl]amino]-1-(benz[d]oxazol-5-yl)pyrrolidine]",IC50,[5],≤ 100 nM
same,inhibition at 1 µM,[1],> 80%
